Experimental data from ChEMBL document CHEMBL4354794, “Potential Anticancer Agents Characterized from Selected Tropical Plants” (J Nat Prod, 2019).

Tests used:
SK-OV-3 = assay: Antiproliferative activity against human SKOV3 cells assessed as reduction in cell viability after 48 hrs by CCK8 assay; type: functional, cell-based; conditions: SK-OV-3, 48 h
OVCAR-3 [1] = assay: Antiproliferative activity against human OVCAR3 cells assessed as reduction in cell viability after 48 hrs by CCK8 assay; type: functional, cell-based; conditions: OVCAR-3, 48 h
[2] = Toxicity in po dosed mouse; type: organism-based; conditions: in vivo
DU-145 = assay: Antiproliferative activity against human DU145 cells assessed as reduction in viability after 48 hrs by MTTS assay; type: functional, cell-based; conditions: DU-145, 48 h
HL-60 = assay: Antiproliferative activity against human HL60 cells assessed as reduction in cell viability after 3 days by trypan blue dye based hemocytometer counting method; type: functional; conditions: HL-60, 72 h
MDA-MB-231 = assay: Antitumour activity against human MDA-MB-231 cells xenografted in Nu/Nu mouse at 10 mg/kg, iv for 6 times at 2 days interval; type: functional
[3] = target: Tyrosine-protein phosphatase non-receptor type 1 (Homo sapiens, UniProt P18031); assay: Inhibition of recombinant human PTP1B (1 to 322 residues) expressed in Escherichia coli assessed as reduction in p-nitrophenol formation using p-nitrophenyl phosphate as substrate incubated for 30 mins by spectrophotometric method
HT-29 [4] = assay: Antiproliferative activity against human HT-29 cells assessed as reduction in cell viability; type: functional, cell-based
OVCAR-3 [5] = assay: Antiproliferative activity against human OVCAR3 cells assessed as reduction in cell viability; type: functional, cell-based
OVCAR-8 = assay: Antiproliferative activity against human OVCAR8 cells assessed as reduction in cell viability; type: functional, cell-based
KB [6] = assay: Antiproliferative activity against human KB/HeLa cells assessed as reduction in cell viability; type: functional, cell-based
HEp-2 = assay: Antiproliferative activity against human Hep2 cells by MTT assay; type: functional, cell-based
KB [7] = assay: Antiproliferative activity against human KB cells assessed as reduction in cell viability; type: functional, cell-based
HeLa = assay: Antiproliferative activity against human HeLa cells assessed as reduction in cell viability; type: functional, cell-based
[8] = Antiproliferative activity against mouse Sch10545 cells incubated for 72 hrs by resazurin dye based fluorescence assay; type: functional, cell-based
[9] = Antiproliferative activity against human Ben-Men-1 cells incubated for 72 hrs by resazurin dye based fluorescence assay; type: functional, cell-based
HT-29 [10] = assay: Antiproliferative activity against human HT-29 cells assessed as reduction in cell viability after 3 days by SRB assay; type: functional, cell-based; conditions: HT-29, 72 h
[11] = Inhibition of chymotrypsin-like proteasome (unknown origin) using Suc-LLVY-AMC as substrate by fluorescence based assay; design: species or system Homo sapiens
P388 = assay: Antiproliferative activity against mouse P388 cells assessed as reduction in cell viability; type: functional, cell-based; conditions: read-out: ED50 (the source's name)
Col2 = assay: Antiproliferative activity against human Col2 cells assessed as reduction in cell viability; type: functional, cell-based
A-431 = assay: Antiproliferative activity against human A431 cells assessed as reduction in cell viability; type: functional; conditions: read-out: ED50 (the source's name)
[12] = Antiproliferative activity against human BC1 cells assessed as reduction in cell viability; type: functional; conditions: read-out: ED50 (the source's name)
KB-V1 = assay: Antiproliferative activity against human KBV1 cells assessed as reduction in cell viability; type: functional; conditions: read-out: ED50 (the source's name)
[13] = Antiproliferative activity against human U373 cells assessed as reduction in cell viability; type: functional, U-373MG ATCC; conditions: U373 MG, read-out: ED50 (the source's name)
HT = assay: Antiproliferative activity against human HT cells assessed as reduction in cell viability; type: functional; conditions: read-out: ED50 (the source's name)
WRL68 = assay: Cytotoxicity against human WRL68 cells assessed as reduction in viability; type: cell-based
SK-HEP1 = assay: Cytotoxicity against human SKHEP1 cells assessed as reduction in viability; type: functional, cell-based

Tyrosine-protein phosphatase non-receptor type 1, sequence (P18031 whole entry, the tested form may be a part): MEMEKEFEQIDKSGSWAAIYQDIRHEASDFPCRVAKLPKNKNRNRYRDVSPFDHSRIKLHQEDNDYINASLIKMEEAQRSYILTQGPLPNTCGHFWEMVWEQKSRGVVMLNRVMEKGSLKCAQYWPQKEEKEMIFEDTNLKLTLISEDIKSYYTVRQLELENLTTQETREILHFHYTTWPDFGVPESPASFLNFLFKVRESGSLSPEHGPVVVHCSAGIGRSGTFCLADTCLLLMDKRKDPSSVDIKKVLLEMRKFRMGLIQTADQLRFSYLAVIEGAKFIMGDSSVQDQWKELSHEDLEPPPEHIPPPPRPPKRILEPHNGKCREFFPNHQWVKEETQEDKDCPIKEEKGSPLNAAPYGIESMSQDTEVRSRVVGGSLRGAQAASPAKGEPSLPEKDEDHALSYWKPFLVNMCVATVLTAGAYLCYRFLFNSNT

O=c1c2cc(O)ccc2oc2cccc(O)c12
IC50 (SK-OV-3): > 10 µM
IC50 (OVCAR-3 [1]): > 10 µM

C[C@H]1O[C@@H](O[C@H]2[C@@H](O)C[C@H](O[C@H]3[C@@H](O)C[C@H](O[C@H]4CC[C@@]5(C)[C@H](CC[C@@H]6[C@@H]5CC[C@]5(C)[C@@H](C7=CC(=O)OC7)CC[C@]65O)C4)O[C@@H]3C)O[C@@H]2C)C[C@H](O)[C@@H]1O [DIGITOXIN]
LD50 [2]: 10 to 80 mg/kg

C[C@@H]1C[C@H](O)[C@]2(O)O[C@@H]3C[C@@]4(C=O)[C@@H](CC[C@@H]5[C@@H]4CC[C@]4(C)[C@@H](C6=CC(=O)OC6)CC[C@]54O)C[C@H]3O[C@@H]2O1 [CALOTROPIN]
IC50 (DU-145): 0.03 µM

CC(C)=CCC[C@]1(C)C=Cc2c(O)c3c(c(CC=C(C)C)c2O1)O[C@]12C(=C[C@@H]4C[C@H]1C(C)(C)O[C@@]2(C/C=C(/C)C(=O)O)C4=O)C3=O [GAMBOGIC ACID]
IC50 (HL-60): 0.17 µM
fold change (FC) (MDA-MB-231): 1.31

CC(C)=CC[C@]12OC(C)(C)[C@H]3C[C@H](C=C4C(=O)c5c(O)cc(O)cc5O[C@@]431)C2=O [COCHINCHINOXANTHONE]
IC50 [3]: 6.6 µM

COc1cc2c(O[C@@H]3O[C@H](CO)[C@@H]4OC(C)(C)O[C@@H]4[C@H]3O)c3c(c(-c4ccc5c(c4)OCO5)c2cc1OC)C(=O)OC3
IC50 (HT-29 [4]): 0.043 µM
IC50 (OVCAR-3 [5]): 0.0042 µM
IC50 (OVCAR-8): 0.004 µM

C[C@]12CC[C@H]3[C@@H](CC[C@H]4C[C@@H](O)[C@H](O)C[C@@]43C=O)[C@@]1(O)CC[C@@H]2C1=CC(=O)OC1 [CALOTROPAGENIN]
IC50 (DU-145): 0.48 µM

CC[C@H](CC[C@@H](C)[C@H]1CC[C@H]2[C@@H]3CC=C4C[C@@H](O)CC[C@]4(C)[C@H]3CC[C@]12C)C(C)C [BETA-SITOSTEROL]
IC50 (KB [6]): > 242 µM
IC50 (HEp-2): 11.4 µM
IC50 (KB [7]): > 10 µg/mL

O=c1cc(-c2ccc(O)c(-c3c(O)cc(O)c4c(=O)cc(-c5ccc(O)cc5)oc34)c2)oc2cc(O)cc(O)c12 [AMENTOFLAVONE]
IC50 (HeLa): > 10 µM

C=C(C)C(=O)O[C@H]1C[C@@]2(C)OC(=CC2=O)/C(CO)=C\[C@H]2OC(=O)C(=C)[C@H]12 [GOIAZENSOLIDE]
IC50 [8]: 1 µM
IC50 [9]: 1 µM

O=C1c2c(O)cc(O)cc2O[C@@H](c2ccc(O)cc2)[C@@H]1c1c(O)cc(O)c2c(=O)cc(-c3ccc(O)c(O)c3)oc12
IC50 (HT-29 [10]): > 10 µM
IC50 [11]: 1.3 µM

COc1cc(-c2oc3cc(OC)c(OC)c(O)c3c(=O)c2OC)ccc1O [CHRYSOSPLENOL B]
EC50 (P388): 0.33 to 1.56 µM
IC50 (Col2): > 10 µg/mL
IC50 (HT-29 [4]): > 10 µM
EC50 (A-431): 0.33 to 1.56 µM
EC50 [12]: 0.33 to 1.56 µM
EC50 (KB [6]; read-out: ED50 (the source's name)): 0.33 to 1.56 µM
EC50 (KB-V1): 2.14 µM
EC50 [13]: 0.33 to 1.56 µM
EC50 (HT): 0.33 to 1.56 µM

COc1c(O)cc2oc3cc(O)c(CC=C(C)C)c(O)c3c(=O)c2c1CC=C(C)C [MANGOSTIN]
IC50 (WRL68): 158 µM
IC50 (SK-HEP1): 19.6 µM
